# Like-named read-outs stand apart in the source and are kept apart here.
# Test system: rat trachea rings
# Experiment: Tracheal relaxation assay (carbachol precontracted rings);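 note: isometric tension of rat tracheal rings in Krebs buffer with 1 µM indomethacin, compounds added cumulatively at 30 min intervals, basal tension subtracted, fit to Hill equation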
# Conditions: for Percentage of carbachol-induced contraction at 1 μM compound, Avg % / Percentage of carbachol-induced contraction at 10 μM compound, Avg %: 1 μM carbachol; for IC50: read-out: IC50 Avg; for Trachael Ring Contraction, %: average percentage of carbachol-induced rat tracheal ring contraction at 1 μM of test compound
# [1] = relaxation of 1 μM carbachol precontracted rat tracheal rings
compound,measurement,setting,value
"CCS(=O)(=O)Nc1cccc(CN2CCC[C@H](Nc3ccc4[nH]ncc4c3)C2)c1 [Compound 1.124, (S)-N-(3-((3-(1H-indazol-5-ylamino)piperidin-1-yl)methyl)phenyl)ethanesulfonamide]","Percentage of carbachol-induced contraction at 1 μM compound, Avg %",,37.8%
same,"Percentage of carbachol-induced contraction at 10 μM compound, Avg %",,19.7%
same,IC50,Rattus norvegicus,0.021 µM
same,"Trachael Ring Contraction, %",,38%
"Cc1ccc(CN2CCC[C@@H](Nc3ccc4[nH]ncc4c3)C2)cc1O [Compound 1.173, (R)-5-((3-(1H-indazol-5-ylamino)piperidin-1-yl)methyl)-2-methylphenol]","Percentage of carbachol-induced contraction at 1 μM compound, Avg %",,32.8%
same,"Trachael Ring Contraction, %",,33%
"Clc1ccc(CN2CCC[C@@H](Nc3ccc4[nH]ncc4c3)C2)cc1 [Compound 1.132, (R)-N-(1-(4-chlorobenzyl)piperidin-3-yl)-1H-indazol-5-amine]","Percentage of carbachol-induced contraction at 1 μM compound, Avg %",,42.4%
same,"Trachael Ring Contraction, %",,42%
"c1cc2cc(CN3CCC[C@H](Nc4ccc5[nH]ncc5c4)C3)ccc2o1 [Compound 1.150, (S)-N-(1-(benzofuran-5-ylmethyl)piperidin-3-yl)-1H-indazol-5-amine]","Percentage of carbachol-induced contraction at 1 μM compound, Avg %",,39.7%
same,"Trachael Ring Contraction, %",,40%
"Fc1ccc(CN2CCC[C@H](Nc3ccc4[nH]ncc4c3)C2)cc1F [Compound 1.072, (S)-N-(1-(3,4-difluorobenzyl)piperidin-3-yl)-1H-indazol-5-amine]","Percentage of carbachol-induced contraction at 1 μM compound, Avg %",,33.1%
"CS(=O)(=O)Nc1cccc(CN2CCC[C@H](Nc3cccc4cnccc34)C2)c1 [Compound 2.037, (S)-N-(3-((3-(isoquinolin-5-ylamino)piperidin-1-yl)methyl)phenyl)methanesulfonamide]","Percentage of carbachol-induced contraction at 10 μM compound, Avg %",,21.3%
same,IC50,Rattus norvegicus,2.12 µM
"c1cc2ccc(CN3CCC[C@H](Nc4ccc5[nH]ncc5c4)C3)cc2[nH]1 [Compound 1.148, (S)-N-(1-((1H-indol-6-yl)methyl)piperidin-3-yl)-1H-indazol-5-amine]","Percentage of carbachol-induced contraction at 1 μM compound, Avg %",,51.2%
same,"Trachael Ring Contraction, %",,51%
"NC(=O)Cn1ccc2ccc(CN3CCC[C@H](Nc4ccc5[nH]ncc5c4)C3)cc21 [Compound 1.107, (S)-2-(6-((3-(1H-indazol-5-ylamino)piperidin-1-yl)methyl)-1H-indol-1-yl)acetamide]","Percentage of carbachol-induced contraction at 10 μM compound, Avg %",,9.9%
same,IC50,Rattus norvegicus,1.24 µM
"C#Cc1cccc(CN2CCC[C@H](Nc3ccc4[nH]ncc4c3)C2)c1 [Compound 1.153, (S)-N-(1-(3-ethynylbenzyl)piperidin-3-yl)-1H-indazol-5-amine]","Percentage of carbachol-induced contraction at 1 μM compound, Avg %",,40.9%
same,"Trachael Ring Contraction, %",,41%
"Oc1cccc(CN2CCC[C@H](Nc3ccc4[nH]ncc4c3)C2)c1 [Compound 1.163, (S)-3-((3-(1H-indazol-5-ylamino)piperidin-1-yl)methyl)phenol]","Percentage of carbachol-induced contraction at 1 μM compound, Avg %",,35.4%
same,"Trachael Ring Contraction, %",,35%
"CCS(=O)(=O)Nc1cccc(CN2CC[C@@H](Nc3cccc4cnccc34)C2)c1 [Compound 2.041, (R)-N-(3-((3-(isoquinolin-5-ylamino)pyrrolidin-1-yl)methyl)phenyl)ethanesulfonamide]","Percentage of carbachol-induced contraction at 10 μM compound, Avg %",,−5.4%
same,IC50,Rattus norvegicus,0.162 µM
"C[C@@H](N)c1ccc(C(=O)Nc2ccnc3[nH]ccc23)cc1 [Compound Y-39983, reference compound]","Percentage of carbachol-induced contraction at 1 μM compound, Avg %",,26.5%
same,"Percentage of carbachol-induced contraction at 10 μM compound, Avg %",,−6.0%
same,IC50,[1],0.19 µM
"CS(=O)(=O)Nc1cc(CN2CCC[C@H](Nc3ccc4[nH]ncc4c3)C2)ccc1Cl [Compound 1.213, (S)-N-(5-((3-(1H-indazol-5-ylamino)piperidin-1-yl)methyl)-2-chlorophenyl)methanesulfonamide]","Percentage of carbachol-induced contraction at 1 μM compound, Avg %",,29.3%
same,"Trachael Ring Contraction, %",,29%
"O=S(=O)(c1cccc2cnccc12)N1CCCNCC1 [Fasudil, reference compound]","Percentage of carbachol-induced contraction at 10 μM compound, Avg %",listed as fasudil,43.0%
same,IC50 Avg,[1],could not be obtained
"CSc1ccc(CN2CCC[C@H](Nc3ccc4[nH]ncc4c3)C2)cc1 [Compound 1.075, (S)-N-(1-(4-(methylthio)benzyl)piperidin-3-yl)-1H-indazol-5-amine]","Percentage of carbachol-induced contraction at 1 μM compound, Avg %",,39.1%
same,"Trachael Ring Contraction, %",,39%
"CCOC(=O)COc1cccc(CN2CCC[C@H](Nc3ccc4[nH]ncc4c3)C2)c1 [Compound 1.200, (S)-ethyl 2-(3-((3-(1H-indazol-5-ylamino)piperidin-1-yl)methyl)phenoxy)acetate]","Percentage of carbachol-induced contraction at 1 μM compound, Avg %",,91.5%
same,"Trachael Ring Contraction, %",,92%
"Clc1ccc(CN2CCC[C@H](Nc3ccc4[nH]ncc4c3)C2)cc1 [Compound 1.141, (S)-N-(1-(4-chlorobenzyl)piperidin-3-yl)-1H-indazol-5-amine]","Percentage of carbachol-induced contraction at 1 μM compound, Avg %",,35.3%
same,"Trachael Ring Contraction, %",,35%
"c1cc2cc(CN3CCC[C@H](Nc4ccc5[nH]ncc5c4)C3)ccc2[nH]1 [Compound 1.149, (S)-N-(1-((1H-indol-5-yl)methyl)piperidin-3-yl)-1H-indazol-5-amine]","Percentage of carbachol-induced contraction at 1 μM compound, Avg %",,34.4%
same,"Trachael Ring Contraction, %",,34%
"Cc1ccc(CN2CCC[C@H](Nc3ccc4[nH]ncc4c3)C2)cc1 [Compound 1.078, (S)-N-(1-(4-methylbenzyl)piperidin-3-yl)-1H-indazol-5-amine]","Percentage of carbachol-induced contraction at 1 μM compound, Avg %",,39.6%
"Cc1ccc(CN2CCC[C@H](Nc3cccc4cnccc34)C2)cc1 [Compound 2.045, (S)-N-(1-(4-methylbenzyl)piperidin-3-yl)isoquinolin-5-amine]","Percentage of carbachol-induced contraction at 10 μM compound, Avg %",,13.6%
same,IC50,Rattus norvegicus,2.72 µM
"CCS(=O)(=O)Nc1cccc(CN2CCC[C@@H](Nc3ccc4[nH]ncc4c3)C2)c1 [Compound 1.123, (R)-N-(3-((3-(1H-indazol-5-ylamino)piperidin-1-yl)methyl)phenyl)ethanesulfonamide]","Percentage of carbachol-induced contraction at 1 μM compound, Avg %",,46.7%
same,"Percentage of carbachol-induced contraction at 10 μM compound, Avg %",,4.6%
same,IC50,Rattus norvegicus,0.045 µM
same,"Trachael Ring Contraction, %",,47%
"NCc1cccc(CN2CCC[C@H](Nc3ccc4[nH]ncc4c3)C2)c1 [Compound 1.184, (S)-N-(1-(3-(aminomethyl)benzyl)piperidin-3-yl)-1H-indazol-5-amine]","Percentage of carbachol-induced contraction at 1 μM compound, Avg %",,88.6%
"Cc1cncc2cccc(S(=O)(=O)N3CCCNC[C@@H]3C)c12 [Compound H-1152, reference compound]","Percentage of carbachol-induced contraction at 10 μM compound, Avg %",,−6.5%
"Cc1ccc(CN2CCC[C@H](Nc3ccc4[nH]ncc4c3)C2)cc1O [Compound 1.151, (S)-5-((3-(1H-indazol-5-ylamino)piperidin-1-yl)methyl)-2-methylphenol]","Percentage of carbachol-induced contraction at 1 μM compound, Avg %",,33.1%
"Cc1ccc(CN2CCC[C@H](Nc3ccc4[nH]ncc4c3)C2)cc1OCCO [Compound 1.152, (S)-2-(5-((3-(1H-indazol-5-ylamino)piperidin-1-yl)methyl)-2-methylphenoxy)ethanol]","Percentage of carbachol-induced contraction at 1 μM compound, Avg %",,34.4%
same,"Trachael Ring Contraction, %",,34%
"CS(=O)(=O)Nc1cc(CN2CCC[C@@H](Nc3ccc4[nH]ncc4c3)C2)ccc1Cl [Compound 1.212, (R)-N-(5-((3-(1H-indazol-5-ylamino)piperidin-1-yl)methyl)-2-chlorophenyl)methanesulfonamide]","Percentage of carbachol-induced contraction at 1 μM compound, Avg %",,40.1%
same,"Trachael Ring Contraction, %",,40%
"CSc1ccc(CN2CCC[C@@H](Nc3ccc4[nH]ncc4c3)C2)cc1 [Compound 1.074, (R)-N-(1-(4-(methylthio)benzyl)piperidin-3-yl)-1H-indazol-5-amine]","Percentage of carbachol-induced contraction at 1 μM compound, Avg %",,39.6%
same,"Percentage of carbachol-induced contraction at 10 μM compound, Avg %",,−15.1%
same,IC50,Rattus norvegicus,0.729 µM
same,"Trachael Ring Contraction, %",,40%
"O=C(O)COc1cccc(CN2CCC[C@H](Nc3ccc4[nH]ncc4c3)C2)c1 [Compound 1.196, (S)-2-(3-((3-(1H-indazol-5-ylamino)piperidin-1-yl)methyl)phenoxy)acetic acid]","Percentage of carbachol-induced contraction at 1 μM compound, Avg %",,96.2%
CC(=O)NCc1cccc(CN2CCC[C@H](Nc3ccc4[nH]ncc4c3)C2)c1 [Compound 1.197],"Percentage of carbachol-induced contraction at 1 μM compound, Avg %",,41.7%
same,"Trachael Ring Contraction, %",,42%
